# From US20060069132A1, “Azolecarboxamide herbicides” (priority 2004, published 2006)
# What was measured:
# common ragweed = test: Test C pre-/postemergence herbicide test; type: in vivo, Ambrosia elatior; parameters: key to Plant response rating, Ragweed: 0 = no effect, 100 = complete control; conditions: preemergence; for Plant response rating (0 = no effect, 100 = complete control), Ragweed: 125 g ai/ha
# Procedure, shortened: (§1)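 Visual ratings on a 0–100 scale (100 = complete control) made versus untreated controls after 12 to 14 greenhouse days. Test chemicals, formulated in surfactant-containing non-phytotoxic solvent, applied preemergence to planted seeds or postemergence to 1- to 4-leaf plants (2 to 18 cm).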
# corn = test: Test C pre-/postemergence herbicide test; type: in vivo, Zea mays; conditions: preemergence; for Plant response rating (0 = no effect, 100 = complete control), Corn: 125 g ai/ha
# Procedure, shortened: as §1
# ducksalad = test: Test C flooded paddy test; type: in vivo, Heteranthera limosa; conditions: for Plant response rating, Ducksalad: 500 g ai/ha, visual rating after 12 to 14 days
# cocklebur = test: Test C pre-/postemergence herbicide test; type: in vivo, Xanthium strumarium; conditions: preemergence; for Plant response rating (0 = no effect, 100 = complete control), Cocklebur: 125 g ai/ha
# Procedure, shortened: as §1
# eastern black nightshade = test: Test C pre-/postemergence herbicide test; type: in vivo, Solanum ptycanthum; conditions: preemergence; for Plant response rating (0 = no effect, 100 = complete control), Nightshade: 125 g ai/ha
# Procedure, shortened: as §1
# barnyardgrass = test: Test C flooded paddy test; type: in vivo, Echinochloa crus-galli; conditions: for Plant response rating, Barnyardgrass: 500 g ai/ha, visual rating after 12 to 14 days
# Procedure, shortened: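 After a postemergence application at 1 to 4 leaves (plants 2–18 cm high), or at 2 leaves for barnyardgrass in flooded paddy, plants stayed in the greenhouse for 12 to 14 days. Damage was then judged visually relative to control plants, with 100 indicating complete control.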
# yellow nutsedge = test: Test C pre-/postemergence herbicide test; type: in vivo, Cyperus esculentus; conditions: preemergence; for Plant response rating (0 = no effect, 100 = complete control), Nutsedge, Yellow: 125 g ai/ha
# Procedure, shortened: as §1
# velvetleaf = test: Test C pre-/postemergence herbicide test; type: in vivo, Abutilon theophrasti; conditions: preemergence; for Plant response rating (0 = no effect, 100 = complete control), Velvetleaf: 125 g ai/ha
# Procedure, shortened: as §1
# large crabgrass = test: Test C pre-/postemergence herbicide test; type: in vivo, Digitaria sanguinalis; conditions: preemergence; for Plant response rating (0 = no effect, 100 = complete control), Crabgrass, Large: 125 g ai/ha
# Procedure, shortened: as §1
# rice = test: Test C flooded paddy test; type: in vivo, Oryza sativa; conditions: for Plant response rating, Rice: 500 g ai/ha, visual rating after 12 to 14 days
# Procedure, shortened: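 Injury scored visually against controls on a 0 (no effect) to 100 (complete control) scale, 12 to 14 days after treatment in greenhouse. Flooded paddy plants treated at 2-leaf stage; postemergence plants at 1- to 4-leaf stage, 2 to 18 cm tall.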
# [1] = 500 g ai/ha, scale 0 to 100 (0 no effect, 100 complete control), visual, 12 to 14 days
# [2] = 125 g ai/ha, scale 0 to 100 (0 no effect, 100 complete control)
# [3] = 250 g ai/ha, scale of 0 to 100, 0 is no effect, 100 is complete control
# [4] = scale 0 to 100 (0 no effect, 100 complete control)
# [5] = 62 g ai/ha, scale 0 to 100 (0 no effect, 100 complete control)
Structure (SMILES),"Plant response rating, Ragweed (common ragweed; 62 g ai/ha, scale 0 to 100)","Plant response rating (0 = no effect, 100 = complete control), Ragweed (common ragweed)","Plant response rating, Ragweed (common ragweed; 250 g ai/ha, scale 0-100)","Plant response rating, Ragweed (common ragweed; [1])","Plant response rating, Corn (corn; 62 g ai/ha, scale 0 to 100)","Plant response rating (0 = no effect, 100 = complete control), Corn (corn)","Plant response rating, Corn (corn; 250 g ai/ha, scale 0-100)","Plant response rating, Corn (corn; [1])","Ducksalad plant response rating (ducksalad; 62 g ai/ha, scale 0 to 100)",Ducksalad plant response rating (ducksalad; [2]),Ducksalad plant response rating (ducksalad; [3]),"Plant response rating, Ducksalad (ducksalad; [4])","Plant response rating, Cocklebur (cocklebur; 62 g ai/ha, scale 0 to 100)","Plant response rating (0 = no effect, 100 = complete control), Cocklebur (cocklebur)","Plant response rating, Cocklebur (cocklebur; 250 g ai/ha, scale 0-100)","Plant response rating, Cocklebur (cocklebur; [1])","Plant response rating, Nightshade (eastern black nightshade; 62 g ai/ha, scale 0 to 100)","Plant response rating (0 = no effect, 100 = complete control), Nightshade (eastern black nightshade)","Plant response rating, Nightshade (eastern black nightshade; 250 g ai/ha, scale 0-100)","Plant response rating, Nightshade (eastern black nightshade; [1])",further results
CCC1=NN(C(C)(C)C)CC1C(=O)Nc1cc(C(=O)N(C)CC)ccc1F (racemic) [Compound 342],55,95,100,100,10,50,70,90,50,50,80,80,10,30,60,100,60,80,80,85,"Barnyardgrass plant response rating (barnyardgrass; [5]): 20; Barnyardgrass plant response rating (barnyardgrass; [2]): 20; Barnyardgrass plant response rating (barnyardgrass; [3]): 50; Plant response rating, Barnyardgrass (barnyardgrass; [4]): 60; Plant response rating, Nutsedge, Yellow (yellow nutsedge; 62 g ai/ha, scale 0 to 100): 0; Plant response rating (0 = no effect, 100 = complete control), Nutsedge, Yellow (yellow nutsedge): 0; Plant response rating, Nutsedge, Yellow (yellow nutsedge; 250 g ai/ha, scale 0-100): 40; Plant response rating, Nutsedge, Yellow (yellow nutsedge; [1]): 60; Plant response rating, Velvetleaf (velvetleaf; 62 g ai/ha, scale 0 to 100): 50; Plant response rating (0 = no effect, 100 = complete control), Velvetleaf (velvetleaf): 60; Plant response rating, Velvetleaf (velvetleaf; 250 g ai/ha, scale 0-100): 100; Plant response rating, Velvetleaf (velvetleaf; [1]): 100; Plant response rating, Crabgrass, Large (large crabgrass; 62 g ai/ha, scale 0 to 100): 60; Plant response rating (0 = no effect, 100 = complete control), Crabgrass, Large (large crabgrass): 60; Plant response rating, Crabgrass, Large (large crabgrass; 250 g ai/ha, scale 0-100): 70; Plant response rating, Crabgrass, Large (large crabgrass; [1]): 85; Rice plant response rating (rice; 62 g ai/ha, scale 0 to 100): 20; Rice plant response rating (rice; [2]): 30; Rice plant response rating (rice; [3]): 60; Plant response rating, Rice (rice; [4]): 80"
CCC1=NN(C(C)(C)C)CC1C(=O)Nc1cc(C(=O)N2CCCC2)ccc1F (racemic) [Compound 341],50,100,100,100,10,60,85,90,20,50,60,60,0,10,50,100,50,55,100,100,"Barnyardgrass plant response rating (barnyardgrass; [5]): 30; Barnyardgrass plant response rating (barnyardgrass; [2]): 30; Barnyardgrass plant response rating (barnyardgrass; [3]): 50; Plant response rating, Barnyardgrass (barnyardgrass; [4]): 60; Plant response rating, Nutsedge, Yellow (yellow nutsedge; 62 g ai/ha, scale 0 to 100): 0; Plant response rating (0 = no effect, 100 = complete control), Nutsedge, Yellow (yellow nutsedge): 0; Plant response rating, Nutsedge, Yellow (yellow nutsedge; 250 g ai/ha, scale 0-100): 30; Plant response rating, Nutsedge, Yellow (yellow nutsedge; [1]): 60; Plant response rating, Velvetleaf (velvetleaf; 62 g ai/ha, scale 0 to 100): 30; Plant response rating (0 = no effect, 100 = complete control), Velvetleaf (velvetleaf): 60; Plant response rating, Velvetleaf (velvetleaf; 250 g ai/ha, scale 0-100): 100; Plant response rating, Velvetleaf (velvetleaf; [1]): 100; Plant response rating, Crabgrass, Large (large crabgrass; 62 g ai/ha, scale 0 to 100): 50; Plant response rating (0 = no effect, 100 = complete control), Crabgrass, Large (large crabgrass): 80; Plant response rating, Crabgrass, Large (large crabgrass; 250 g ai/ha, scale 0-100): 90; Plant response rating, Crabgrass, Large (large crabgrass; [1]): 100; Rice plant response rating (rice; 62 g ai/ha, scale 0 to 100): 20; Rice plant response rating (rice; [2]): 50; Rice plant response rating (rice; [3]): 60; Plant response rating, Rice (rice; [4]): 70"
CCc1nn(C(C)(C)CC)nc1C(=O)Nc1cccc(C(=O)N(C)C)c1 [Compound 372],70,90,100,100,60,60,65,65,65,85,85,85,0,10,60,90,85,95,100,100,"Barnyardgrass plant response rating (barnyardgrass; [5]): 65; Barnyardgrass plant response rating (barnyardgrass; [2]): 70; Barnyardgrass plant response rating (barnyardgrass; [3]): 75; Plant response rating, Barnyardgrass (barnyardgrass; [4]): 80; Plant response rating, Nutsedge, Yellow (yellow nutsedge; 62 g ai/ha, scale 0 to 100): 5; Plant response rating (0 = no effect, 100 = complete control), Nutsedge, Yellow (yellow nutsedge): 30; Plant response rating, Nutsedge, Yellow (yellow nutsedge; 250 g ai/ha, scale 0-100): 40; Plant response rating, Nutsedge, Yellow (yellow nutsedge; [1]): 85; Plant response rating, Velvetleaf (velvetleaf; 62 g ai/ha, scale 0 to 100): 50; Plant response rating (0 = no effect, 100 = complete control), Velvetleaf (velvetleaf): 100; Plant response rating, Velvetleaf (velvetleaf; 250 g ai/ha, scale 0-100): 100; Plant response rating, Velvetleaf (velvetleaf; [1]): 100; Plant response rating, Crabgrass, Large (large crabgrass; 62 g ai/ha, scale 0 to 100): 70; Plant response rating (0 = no effect, 100 = complete control), Crabgrass, Large (large crabgrass): 85; Plant response rating, Crabgrass, Large (large crabgrass; 250 g ai/ha, scale 0-100): 95; Plant response rating, Crabgrass, Large (large crabgrass; [1]): 95; Rice plant response rating (rice; 62 g ai/ha, scale 0 to 100): 80; Rice plant response rating (rice; [2]): 85; Rice plant response rating (rice; [3]): 90; Plant response rating, Rice (rice; [4]): 90"
